Test results published in ChEMBL document CHEMBL1201862, “PubChem BioAssay data set” (2004).
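All cell lines were grown in 96-well plates and treated with compound for 48 hours. GI50 marks 50% less growth.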 Activity calls are given as the source filed them. No stated cut-off is given here; in the data, active = GI50 up to about 1.1 µM and inactive = higher.

Key:
Assay in all cases: NCI tumour cell line growth inhibition, 48 h
[1] = tested on: 786-0
[2] = tested on: A498
[3] = tested on: A549
[4] = tested on: ACHN
[5] = tested on: BT-549
[6] = tested on: CAKI-1
[7] = tested on: CCRF-CEM
[8] = tested on: COLO 205
[9] = tested on: DU-145
[10] = tested on: EKVX
[11] = tested on: HCC 2998
[12] = tested on: HCT-116
[13] = tested on: HCT-15
[14] = tested on: HOP-62
[15] = tested on: HT-29
[16] = tested on: IGROV-1
[17] = tested on: KM12
[18] = tested on: LOX IMVI
[19] = tested on: M14
[20] = tested on: MCF7
[21] = tested on: MDA-MB-231
[22] = tested on: MDA-MB-435
[23] = tested on: MDA-N
[24] = tested on: MOLT-4
[25] = tested on: Malme-3M
[26] = tested on: NCI-H226
[27] = tested on: NCI-H23
[28] = tested on: NCI-H522
[29] = tested on: NCI/ADR-RES
[30] = tested on: OVCAR-3
[31] = tested on: OVCAR-4
[32] = tested on: OVCAR-5
[33] = tested on: OVCAR-8
[34] = tested on: PC-3
[35] = tested on: RPMI-8226
[36] = tested on: SF-268
[37] = tested on: SF-295
[38] = tested on: SF-539
[39] = tested on: SK-MEL-2
[40] = tested on: SK-MEL-5
[41] = tested on: SK-OV-3
[42] = tested on: SN12C
[43] = tested on: SNB-75
[44] = tested on: SR
[45] = tested on: SW-620
[46] = tested on: T47D
[47] = tested on: TK-10
[48] = tested on: U-251
[49] = tested on: UACC-257
[50] = tested on: UACC-62
[51] = tested on: UO-31
[52] = tested on: HL-60
[53] = tested on: HOP-92
[54] = tested on: Hs-578T
[55] = tested on: K562
[56] = tested on: NCI-H460
[57] = tested on: RXF 393
[58] = tested on: SK-MEL-28
[59] = tested on: SNB-19

SMILES: CCCCNC(=S)Nc1nc(C(=O)NNC(=S)NCC)cs1
- GI50 [1]: > 100 µM (inactive)
- GI50 [2]: > 100 µM (inactive)
- GI50 [3]: > 100 µM (inactive)
- GI50 [4]: 31.6 µM (inactive)
- GI50 [5]: > 100 µM (inactive)
- GI50 [6]: 63.5 µM (inactive)
- GI50 [7]: 44 µM (inactive)
- GI50 [8]: 62.5 µM (inactive)
- GI50 [9]: 73.5 µM (inactive)
- GI50 [10]: 16.5 µM (inactive)
- GI50 [11]: > 100 µM (inactive)
- GI50 [12]: 53.1 µM (inactive)
- GI50 [13]: 23 µM
- GI50 [14]: > 100 µM (inactive)
- GI50 [15]: 53.8 µM (inactive)
- GI50 [16]: 78.5 µM (inactive)
- GI50 [17]: 76.9 µM (inactive)
- GI50 [18]: 33.2 µM (inactive)
- GI50 [19]: > 100 µM (inactive)
- GI50 [20]: > 100 µM (inactive)
- GI50 [21]: 99.8 µM (inactive)
- GI50 [22]: > 100 µM (inactive)
- GI50 [23]: 82 µM (inactive)
- GI50 [24]: 50.4 µM (inactive)
- GI50 [25]: > 100 µM (inactive)
- GI50 [26]: > 10 µM (inactive)
- GI50 [27]: > 100 µM (inactive)
- GI50 [28]: > 100 µM (inactive)
- GI50 [29]: 26.5 µM (inactive)
- GI50 [30]: 44 µM (inactive)
- GI50 [31]: 73.1 µM (inactive)
- GI50 [32]: > 100 µM (inactive)
- GI50 [33]: > 100 µM (inactive)
- GI50 [34]: > 100 µM (inactive)
- GI50 [35]: > 100 µM (inactive)
- GI50 [36]: > 100 µM (inactive)
- GI50 [37]: > 100 µM (inactive)
- GI50 [38]: 73.5 µM (inactive)
- GI50 [39]: > 100 µM (inactive)
- GI50 [40]: 25.7 µM (inactive)
- GI50 [41]: > 100 µM (inactive)
- GI50 [42]: 56.8 µM (inactive)
- GI50 [43]: > 100 µM (inactive)
- GI50 [44]: 6.73 µM (inactive)
- GI50 [45]: 97.9 µM (inactive)
- GI50 [46]: 16.7 µM (inactive)
- GI50 [47]: > 100 µM (inactive)
- GI50 [48]: > 100 µM (inactive)
- GI50 [49]: > 100 µM (inactive)
- GI50 [50]: > 100 µM (inactive)
- GI50 [51]: 31.6 µM (inactive)

SMILES: NC(=O)N/N=C/c1ccccc1O
- GI50 [1]: > 100 µM (inactive)
- GI50 [2]: > 100 µM (inactive)
- GI50 [4]: > 100 µM (inactive)
- GI50 [5]: > 100 µM (inactive)
- GI50 [6]: > 100 µM (inactive)
- GI50 [7]: > 100 µM (inactive)
- GI50 [8]: > 100 µM (inactive)
- GI50 [9]: > 100 µM (inactive)
- GI50 [10]: 45 µM (inactive)
- GI50 [11]: > 100 µM (inactive)
- GI50 [12]: > 100 µM (inactive)
- GI50 [13]: > 100 µM
- GI50 [52]: 53.1 µM (inactive)
- GI50 [14]: > 100 µM (inactive)
- GI50 [53]: > 100 µM (inactive)
- GI50 [15]: > 100 µM (inactive)
- GI50 [54]: 53.6 µM (inactive)
- GI50 [16]: > 100 µM (inactive)
- GI50 [55]: > 100 µM (inactive)
- GI50 [17]: > 100 µM (inactive)
- GI50 [18]: > 100 µM (inactive)
- GI50 [19]: > 100 µM (inactive)
- GI50 [20]: > 100 µM (inactive)
- GI50 [21]: > 100 µM (inactive)
- GI50 [22]: > 100 µM (inactive)
- GI50 [24]: > 100 µM (inactive)
- GI50 [26]: > 100 µM (inactive)
- GI50 [27]: > 100 µM (inactive)
- GI50 [56]: > 100 µM (inactive)
- GI50 [29]: > 100 µM (inactive)
- GI50 [31]: > 100 µM (inactive)
- GI50 [33]: > 100 µM (inactive)
- GI50 [34]: > 100 µM (inactive)
- GI50 [35]: > 100 µM (inactive)
- GI50 [57]: > 100 µM (inactive)
- GI50 [36]: > 100 µM (inactive)
- GI50 [37]: > 100 µM (inactive)
- GI50 [38]: > 100 µM (inactive)
- GI50 [58]: > 100 µM (inactive)
- GI50 [39]: > 100 µM (inactive)
- GI50 [40]: > 100 µM (inactive)
- GI50 [41]: > 100 µM (inactive)
- GI50 [59]: > 100 µM (inactive)
- GI50 [43]: > 100 µM (inactive)
- GI50 [44]: > 100 µM (inactive)
- GI50 [45]: > 100 µM (inactive)
- GI50 [46]: > 100 µM (inactive)
- GI50 [47]: > 100 µM (inactive)
- GI50 [48]: > 100 µM (inactive)
- GI50 [49]: > 100 µM (inactive)
- GI50 [50]: > 100 µM (inactive)
- GI50 [51]: > 100 µM (inactive)
